{"source": "patent US20260327211A1", "about": "“MODULATORS OF A POTASSIUM CHANNEL AND OF TRPV1 CHANNEL AND USES THEREOF” (Bsense Bio Therapeutics Ltd., priority 2023, published 2026)", "key": {"CYP3A4": {"tested_on": "CYP3A4", "test": "CYP inhibition / time-dependent inhibition, CYP3A4_Midazolam", "type": "in vitro ADME, human", "conditions": "for TDI related reactive metabolite: Table 11", "procedure": "The time-dependent inactivation potency of the test compound to CYP enzymatic activities was assessed by the pre-incubation of the human liver microsomes with the test compound in the presence and absence of NADPH, followed by the incubation with the discrete marker substrates, as follows.\nPre-incubation with human liver microsomes (HLMs): The TDI inactivation potency on CYP enzymatic activities was evaluated through pre-incubation with HLMs (Corning). A liver microsome mixture at a concentration of 0.1 mg/mL, and the test compound at 8 different concentrations (0, 0.05, 0.165, 0.5, 1.65, 5.0, 16.5, or 50.0 μM) was warmed at 37° C. for 10 minutes. Concurrently, a set of known time-dependent inactivators was also prepared in duplicate for comparison. Following this, NADPH (1.0 mM) was added to one group (Group 1), and an equal volume of potassium phosphate buffer to the second group (Group 2), marking the beginning of a 30-minute pre-incubation at 37° C.\nIncubation: After pre-incubation, the marker substrate, or marker substrate plus NADPH was added to the mixture, thereby initiating the incubation. The duration of the incubation was dependent on the type of CYP isoform being evaluated. For example, with the CYP3A isoform, the mixture was incubated over 3 minutes utilizing midazolam as the marker substrate (2.0 μM), verapamil as the standard inactivator (3.5 μM).\nTermination of Reaction: Following the incubation, ice-cooled acetonitrile containing the internal standard (IS) was added to halt the reactions. Metabolites generated from the marker substrates were then measured via LC-MS/MS, assessed based on peak area ratios of the analyte to IS."}, "[1]": {"test": "Rat liver microsome metabolic stability", "type": "in vitro ADME", "conditions": "rat liver microsomes; for half-life at 1 µM: read-out: RLM T1/2", "source_text": "Liver microsomes which are subcellular particles derived from endoplasmic reticulum of hepatic cells were used for evaluating the tested compounds. These particles are rich in drug metabolizing enzymes, including the cytochrome p-450 family. Liver microsomes are a recommended test system for various in vitro drug metabolism and pharmacokinetics (DMPK) studies. CLint values lower than […] are considered suitable for drug development.\nLiver Microsome Metabolic Stability Assay (NADPH): The liver microsome stability assay was evaluated through pre-incubation with HLMs. A liver microsome mixture (pooled from multiple donors) at a concentration of 0.5 mg/mL, and the test compound at a concentration of 1 μM, were warmed in the presence of a NADPH regenerating system (about 1.0 mM) at 37° C. Positive controls, including testosterone (a CYP3A4 substrate), propafenone (a CYP2D6 substrate), and diclofenac (a CYP2C9) substrate, were concurrently incubated with the HLMs, in the presence of the NADPH regenerating system (1.0 mM). Samples were extracted during incubation at multiple intervals: 0, 5, 15, 30, 45 and 60 minutes. To terminate the reactions, the samples were promptly mixed with cooled acetonitrile that included an internal standard (IS). An additional compound was incubated with the HLMs in the absence of the NADPH regeneration system, from which a sample was taken at the 60-minute interval.\nThe clearance of the test compound in the samples was subsequently analyzed by LC-MS/MS based on the peak area ratios of the analyte to the IS.\nThe following equation was used to calculate the microsome clearance: […]\nLiver weight: 40 grams/kg, 30 grams/kg, 32 grams/kg, 20 grams/kg and 88 grams/kg, for rat, monkey, dog, human and mouse, respectively."}, "hKv7.3/5": {"target": "T1, hKv7.3/5 (Homo sapiens, UniProt O43525+Q9NR82)", "T1 construct": "expressed in transfected cells; host or cells: CHO", "T1 sequence (O43525 whole entry)": "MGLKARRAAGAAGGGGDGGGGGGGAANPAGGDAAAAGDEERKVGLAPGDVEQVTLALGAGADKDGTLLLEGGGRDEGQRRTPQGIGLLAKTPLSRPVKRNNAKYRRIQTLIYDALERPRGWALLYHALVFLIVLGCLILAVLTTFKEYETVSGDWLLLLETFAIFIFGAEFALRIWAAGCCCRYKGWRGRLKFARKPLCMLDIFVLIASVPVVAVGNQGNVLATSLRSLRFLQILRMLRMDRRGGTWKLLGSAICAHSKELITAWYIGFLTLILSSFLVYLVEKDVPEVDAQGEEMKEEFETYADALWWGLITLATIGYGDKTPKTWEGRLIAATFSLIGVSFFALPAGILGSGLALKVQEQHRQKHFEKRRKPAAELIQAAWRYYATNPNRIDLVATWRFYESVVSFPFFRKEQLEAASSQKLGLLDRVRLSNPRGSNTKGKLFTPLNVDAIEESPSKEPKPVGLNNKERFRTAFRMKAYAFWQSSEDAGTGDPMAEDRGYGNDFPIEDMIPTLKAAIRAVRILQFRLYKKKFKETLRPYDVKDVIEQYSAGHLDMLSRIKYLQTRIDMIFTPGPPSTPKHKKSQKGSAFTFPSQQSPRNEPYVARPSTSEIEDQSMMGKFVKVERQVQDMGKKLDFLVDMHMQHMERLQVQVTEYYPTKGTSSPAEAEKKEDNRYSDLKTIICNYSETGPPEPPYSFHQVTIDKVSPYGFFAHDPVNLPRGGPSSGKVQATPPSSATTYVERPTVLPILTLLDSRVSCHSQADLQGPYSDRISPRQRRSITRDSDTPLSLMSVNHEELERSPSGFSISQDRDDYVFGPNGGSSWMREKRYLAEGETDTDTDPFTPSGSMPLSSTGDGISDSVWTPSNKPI", "T1 sequence (Q9NR82 whole entry)": "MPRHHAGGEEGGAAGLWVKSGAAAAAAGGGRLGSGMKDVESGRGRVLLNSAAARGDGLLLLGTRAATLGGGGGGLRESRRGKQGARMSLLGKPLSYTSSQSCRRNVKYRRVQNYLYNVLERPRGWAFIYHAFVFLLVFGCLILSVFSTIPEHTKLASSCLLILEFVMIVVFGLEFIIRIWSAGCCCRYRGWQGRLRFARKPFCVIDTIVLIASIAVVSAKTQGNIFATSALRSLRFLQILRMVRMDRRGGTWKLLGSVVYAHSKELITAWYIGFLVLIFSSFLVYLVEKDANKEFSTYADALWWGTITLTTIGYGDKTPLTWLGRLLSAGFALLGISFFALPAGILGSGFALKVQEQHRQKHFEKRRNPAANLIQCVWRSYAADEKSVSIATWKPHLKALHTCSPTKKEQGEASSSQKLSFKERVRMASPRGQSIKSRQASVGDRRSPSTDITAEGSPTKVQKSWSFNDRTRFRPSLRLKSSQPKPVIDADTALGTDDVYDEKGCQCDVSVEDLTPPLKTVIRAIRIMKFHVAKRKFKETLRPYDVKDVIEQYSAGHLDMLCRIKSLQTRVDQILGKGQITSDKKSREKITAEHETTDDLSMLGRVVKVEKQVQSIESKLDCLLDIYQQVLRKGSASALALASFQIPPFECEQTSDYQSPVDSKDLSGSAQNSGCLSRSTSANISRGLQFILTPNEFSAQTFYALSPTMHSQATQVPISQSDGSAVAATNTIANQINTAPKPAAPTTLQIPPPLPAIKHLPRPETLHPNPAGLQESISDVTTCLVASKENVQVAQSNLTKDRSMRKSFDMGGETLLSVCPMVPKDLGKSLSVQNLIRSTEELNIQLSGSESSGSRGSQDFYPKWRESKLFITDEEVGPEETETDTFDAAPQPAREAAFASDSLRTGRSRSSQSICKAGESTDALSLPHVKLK", "test": "Kv7.3/5 HCS, FLIPR potassium assay", "type": "cell-based", "procedure": "(§1) Cell culture: Chinese hamster ovary (CHO) cell-line cells were cultured in F-12 nutrient mixture (Biological Industries) supplemented with 10% fetal bovine serum with 1% penicillin-streptomycin (Biological Industries) in a humidified 5% CO2 incubator at 37° C. To express the appropriate gene either Kv7.3/5, Kv7.4 or TRPA1 5 μg plasmid was transfected using Amaxa, DT-133 program, with p-3 Kit.\n(§2) Kv7.3/5 and 7.4HCS using FLIPR Potassium Assay Kit: Kv7.3/5 and 7.4 HCS using the FLIPR Potassium Assay Kit was performed similarly to the Kv7.2/3 HCS, except that the Tecan Spark plate-reader injectors were primed with Tl+(1 mM Tl2SO4) or Tl++K+(1 mM Tl2SO4; 5 mM K2SO4) for Kv7.3/5, or Tl+(1 mM Tl2SO4) or Tl++K+(1 mM Tl2SO4; 10 mM K2SO4) for Kv7.4 for channel activation and data correction.\n(§3) FLIPR Potassium Assay Kit: The FLIPR Potassium Assay Kit (R8222 FLIPR Potassium Assay Explorer Kits, Molecular Devices) was used with transfected CHO cells.\n(§4) According to optimization process, to achieve a uniform and consistent screening condition of molecules, the following protocol was established: 2 days following transfection cells were seeded in 384-well, black-walled, clear-bottomed, at a density of 5,000 cells per well 24 hours before the assay conductance and incubated overnight in their normal growth medium. On the experiment day the medium was replaced with HBSS, HEPES, and the tested compound/vehicle (0.2% DMSO). Dye solution (prepared according to the manufacturer) was added to the wells and plates were incubated for 1.5 hour light-protected in room temperature. The Tecan Spark plate-reader injectors were primed with Tl+(1 mM Tl2SO4) or Tl++K+(1 mM Tl2SO4; 5 mM K2SO4) for Kv7.3/5 channel activation and data correction or Tl+(1 mM Tl2SO4) or Tl++K+(1 mM Tl2SO4; 10 mM K2SO4) for Kv7.4 for channel activation and data correction. […] To calculate IC50 values, the data was fitted to sigmoidal regression using Prism GraphPad."}, "hKv7.4": {"target": "T2, hKv7.4 (Homo sapiens, UniProt P56696)", "T2 construct": "expressed in transfected cells; host or cells: CHO", "T2 sequence (P56696 whole entry)": "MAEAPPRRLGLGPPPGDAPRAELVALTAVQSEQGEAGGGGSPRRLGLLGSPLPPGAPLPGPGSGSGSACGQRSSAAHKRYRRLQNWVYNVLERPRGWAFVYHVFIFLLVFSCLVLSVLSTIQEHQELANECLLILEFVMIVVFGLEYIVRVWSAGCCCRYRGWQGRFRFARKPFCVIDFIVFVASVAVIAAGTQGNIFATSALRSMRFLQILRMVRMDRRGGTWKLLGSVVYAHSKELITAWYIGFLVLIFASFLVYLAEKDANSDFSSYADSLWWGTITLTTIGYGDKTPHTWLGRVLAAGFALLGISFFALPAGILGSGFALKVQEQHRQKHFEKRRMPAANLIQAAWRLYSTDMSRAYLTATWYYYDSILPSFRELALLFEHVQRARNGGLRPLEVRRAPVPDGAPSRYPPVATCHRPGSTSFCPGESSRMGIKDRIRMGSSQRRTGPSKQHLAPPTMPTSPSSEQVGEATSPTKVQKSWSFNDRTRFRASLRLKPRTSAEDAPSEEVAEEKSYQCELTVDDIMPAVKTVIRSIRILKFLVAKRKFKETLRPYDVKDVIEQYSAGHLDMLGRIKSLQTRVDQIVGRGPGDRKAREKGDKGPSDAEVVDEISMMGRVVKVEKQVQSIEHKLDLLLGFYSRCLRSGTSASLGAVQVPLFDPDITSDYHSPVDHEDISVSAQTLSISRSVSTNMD", "test": "Kv7.4 HCS, FLIPR potassium assay", "type": "cell-based", "procedure": "as §1, §2, §3, §4"}, "[2]": {"test": "Plasma protein binding, rat", "type": "in vitro ADME", "conditions": "read-out: PPB fu (rat)", "procedure": "Incubation: Test compounds or the positive control warfarin were introduced into 10% plasma samples (Sourced from WuXi DMPK labs or from commercial vendors) to a concentration of 2 μM. A portion of 150 μL of the compound-containing plasma sample was added to one chamber of a 96-well equilibrium HTD dialysis plate. An equal volume of dialysis buffer was added to the corresponding chamber. A plasma sample was also taken before the incubation and designated as the T0 sample, serving for recovery calculation. The plate was incubated in a humidified 5% CO2 incubator at 37° C. for 4 hours. Each incubation was set up in triplicate.\nSample extraction and preparation: Following the incubation period, samples of 50 μL were drawn from both the plasma side and the buffer side and each was mixed with an equal volume of blank plasma. All matrix-matched samples were quenched using a stop solution containing an internal standard (IS).\nSample Analysis: The samples were subsequently analyzed by LC-MS/MS. The concentrations of the test compound in plasma and buffer samples were quantified based on the peak area ratio of analyte to the internal standard, with no requirement for a standard curve."}}, "note": "pEC50: −log10 of the molar value. Like-named read-outs stand apart in the source and are kept apart here.", "data": [{"compound": "O=C(Cc1nccc(-n2cc(Cl)c3cc(Cl)cc(Cl)c32)n1)NC1COCC1O", "note": "(stereo not drawn) [Compound 760]", "values": [{"measurement": "TDI related reactive metabolite", "setting": "CYP3A4", "result": "No"}, {"measurement": "CYP inhibition / TDI, all CYPs of Table 9", "setting": "CYP3A4; role: inhibitor, up to 20 micromolar", "result": "did not show significant CYP inhibition or time-dependent inhibition (TDI)"}, {"measurement": "half-life at 1 µM", "setting": "[1]", "result": 11.9, "unit": "min"}, {"measurement": "pEC50", "setting": "hKv7.3/5; Thallium ions (Tl+) fluorescence, read-out: hKv7.3/5 EC50", "result": 4.97}, {"measurement": "Kv7.4 activity", "setting": "hKv7.4", "result": "lacks any effect on hERG and Kv7.3/4/5 activity below 10 μM"}, {"measurement": "pEC50", "setting": "hKv7.4; Thallium ions (Tl+) fluorescence, read-out: hKv7.4 EC50", "result": 4.34}]}, {"compound": "O=C(Cc1cncc(-n2cc(Cl)c3cc(Cl)cc(Cl)c32)c1)N[C@@H]1COC[C@H]1O", "note": "[Compound 661]", "values": [{"measurement": "TDI related reactive metabolite", "setting": "CYP3A4", "result": "Yes"}, {"measurement": "CLint scaled at 1 µM", "setting": "[1]", "result": 527, "unit": "mL/min/kg"}, {"measurement": "half-life at 1 µM", "setting": "[1]", "result": 4.7, "unit": "min"}, {"measurement": "pEC50", "setting": "hKv7.3/5; read-out: Kv7.3/5 EC50 HCS", "result": 4.39}, {"measurement": "Kv7.4 activity", "setting": "hKv7.4", "result": "no measurable activity at any concentration tested"}, {"measurement": "pEC50", "setting": "hKv7.4; read-out: Kv7.4 EC50 HCS", "result": 4.31}, {"measurement": "fraction unbound at 4 h, 2 µM", "setting": "[2]", "result": 0.0029}]}, {"compound": "O=C(Cc1ccnc(-n2cc(Cl)c3cc(Cl)cc(Cl)c32)n1)N[C@@H]1COC[C@H]1O", "note": "[Compound 820]", "values": [{"measurement": "CYP-TDI (midazolam), (−)NADPH/(+)NADPH Ratio CYP3A4", "setting": "CYP3A4; role: inhibitor, substrate midazolam 2.0 μM, CYP TDI ratio", "result": "<0.9"}]}, {"compound": "CC(C)c1cc(Cl)cc(Cl)c1Nc1ccc(F)c(CC(=O)NCC(C)(C)O)c1", "note": "[NH91, reference compound]", "values": [{"measurement": "half-life at 1 µM", "setting": "[1]", "result": 2.5, "unit": "min"}]}, {"compound": "Cc1cn(-c2ccc(F)c(CC(=O)NCC(C)(C)O)c2)c2c(Cl)cc(Cl)cc12", "note": "[Compound 421]", "values": [{"measurement": "TDI related reactive metabolite", "setting": "CYP3A4", "result": "Yes"}, {"measurement": "CLint scaled at 1 µM", "setting": "[1]", "result": 177, "unit": "mL/min/kg"}, {"measurement": "half-life at 1 µM", "setting": "[1]", "result": 14.1, "unit": "min"}, {"measurement": "pEC50", "setting": "hKv7.3/5; read-out: Kv7.3/5 EC50 HCS", "result": 5.52}, {"measurement": "pEC50", "setting": "hKv7.4; read-out: Kv7.4 EC50 HCS", "result": "< 5.70"}, {"measurement": "fraction unbound at 4 h, 2 µM", "setting": "[2]", "result": 0.0004}]}, {"compound": "O=C(Cc1cc(-n2cc(Cl)c3cc(Cl)cc(Cl)c32)ccc1F)NCCO", "note": "[Compound 627]", "values": [{"measurement": "TDI related reactive metabolite", "setting": "CYP3A4", "result": "Yes"}, {"measurement": "CLint scaled at 1 µM", "setting": "[1]", "result": 63.5, "unit": "mL/min/kg"}, {"measurement": "half-life at 1 µM", "setting": "[1]", "result": 39.3, "unit": "min"}, {"measurement": "pEC50", "setting": "hKv7.3/5; read-out: Kv7.3/5 EC50 HCS", "result": "< 6.22"}, {"measurement": "pEC50", "setting": "hKv7.4; read-out: Kv7.4 EC50 HCS", "result": 4.06}, {"measurement": "fraction unbound at 4 h, 2 µM", "setting": "[2]", "result": 0.0004}]}]}
